This note sets out measurements from patent publication US9586949B2, “Aza-heteroaryl compounds as PI3K-gamma inhibitors” (Incyte Corporation, priority 2015, dated 2017).

Each structure is given as a SMILES string. Counter-ions that a name gives are not always drawn. Some results are limits rather than exact numbers.

Assay [1] concerns the target PI3Kγ (p110γ) Recombinant Human Protein (Homo sapiens (Human), UniProt P48736). The assay can be described thus: PI3K-γ Scintillation Proximity Assay. In kind it is biochemical. As to conditions: 20 μM PIP2, 2 μM ATP, 13 nM PI3Kγ, 120 min; read-out: PI3K-gamma SPA IC50. Here is the method: [γ-^33P]ATP (10 mCi/mL) and Wheat Germ Agglutinin (WGA) YSi SPA Scintillation Beads was purchased from Perkin-Elmer (Waltham, Mass.). […] PI3Kγ (p110γ) Recombinant Human Protein was purchased from Life technology (Grand Island, N.Y.). ATP, MgCl2, DTT, EDTA, MOPS and CHAPS were purchased from Sigma-Aldrich (St. Louis, Mo.).
The kinase reaction was conducted in polystyrene 384-well Greiner Bio-one white plate from Thermo Fisher Scientific in a final volume of 25 μL. Inhibitors were first diluted serially in DMSO and added to the plate wells before the addition of other reaction components. The final concentration of DMSO in the assay was 2%. The PI3Kγ assay was carried out at room temperature in 20 mM MOPS, pH 6.7, 10 mM MgCl2, 5 mM DTT and CHAPS 0.03%. Reactions were initiated by the addition of ATP, the final reaction mixture consisted of 20 μM PIP2, 2 μM ATP, 0.5 μCi [γ-^33P] […] The final concentration of SPA beads is 1.0 mg/mL. After the plate sealing, plates were shaken overnight at room temperature and centrifuged at 1500 rpm for 10 min, the radioactivity of the product was determined by scintillation counting on Topcount (Perkin-Elmer). IC50 determination was performed by fitting the curve of percent of the solvent control activity versus the log of the inhibitor concentration using the GraphPad Prism 6.0 software.
Background: SPA uses beads or plates that emit light when radiolabelled molecules are held near them.

Assay [2] concerns the target PI3Kδ (p110δ/p85α) Recombinant Human Protein (Homo sapiens (Human), UniProt O00329). The assay can be described thus: PI3Kδ Scintillation Proximity Assay. The class given is biochemical. To be noted: 20 μM PIP2, 2 μM ATP, 3.4 nM PI3Kδ, 120 min; read-out: PI3K-delta SPA IC50. The source says:
[γ-^33P]ATP (10 mCi/mL) and Wheat Germ Agglutinin (WGA) YSi SPA Scintillation Beads was purchased from Perkin-Elmer (Waltham, Mass.). Lipid kinase substrate, D-myo-Phosphatidylinositol 4,5-bisphosphate (PtdIns(4,5)P2)D (+)-sn-1,2-di-O-octanoylglyceryl, 3-O-phospho linked (PIP2), CAS 204858-53-7, was purchased from Echelon Biosciences (Salt Lake City, Utah). PI3Kδ (p110δ/p85α) Recombinant Human Protein was purchased from Eurofins (St Charles, Mo.). ATP, MgCl2, DTT, EDTA, MOPS and CHAPS were purchased from Sigma-Aldrich (St. Louis, Mo.).
The kinase reaction was conducted in polystyrene 384-well Greiner Bio-one white plate from Thermo Fisher Scientific in a final volume of 25 μL. Inhibitors were first diluted serially in DMSO and added to the plate wells before the addition of other reaction components. The final concentration of DMSO in the assay was 2%. The PI3Kδ assay was carried out at room temperature in 20 mM MOPS, pH 6.7, 10 mM MgCl2, 5 mM DTT and CHAPS 0.03%. Reactions were initiated by the addition of ATP, the final reaction mixture consisted of 20 μM PIP2, 2 μM ATP, 0.5 μCi [γ-^33P] ATP, 3.4 nM PI3Kδ. Reactions were incubated for 120 min and terminated by the addition of 40 μL SPA beads suspended in quench buffer: 163 mM potassium phosphate pH 7.8, 20% glycerol, 25 mM EDTA. The final concentration of SPA beads is 1.0 mg/mL. After the plate sealing, plates were shaken overnight at room temperature and centrifuged at 1500 rpm for 10 min, the radioactivity of the product was determined by scintillation counting on Topcount (Perkin-Elmer). IC50 determination was performed by fitting the curve of percent of the solvent control activity versus the log of the inhibitor concentration using the GraphPad Prism 6.0 software.

PI3Kγ (p110γ) Recombinant Human Protein, sequence (P48736 whole entry): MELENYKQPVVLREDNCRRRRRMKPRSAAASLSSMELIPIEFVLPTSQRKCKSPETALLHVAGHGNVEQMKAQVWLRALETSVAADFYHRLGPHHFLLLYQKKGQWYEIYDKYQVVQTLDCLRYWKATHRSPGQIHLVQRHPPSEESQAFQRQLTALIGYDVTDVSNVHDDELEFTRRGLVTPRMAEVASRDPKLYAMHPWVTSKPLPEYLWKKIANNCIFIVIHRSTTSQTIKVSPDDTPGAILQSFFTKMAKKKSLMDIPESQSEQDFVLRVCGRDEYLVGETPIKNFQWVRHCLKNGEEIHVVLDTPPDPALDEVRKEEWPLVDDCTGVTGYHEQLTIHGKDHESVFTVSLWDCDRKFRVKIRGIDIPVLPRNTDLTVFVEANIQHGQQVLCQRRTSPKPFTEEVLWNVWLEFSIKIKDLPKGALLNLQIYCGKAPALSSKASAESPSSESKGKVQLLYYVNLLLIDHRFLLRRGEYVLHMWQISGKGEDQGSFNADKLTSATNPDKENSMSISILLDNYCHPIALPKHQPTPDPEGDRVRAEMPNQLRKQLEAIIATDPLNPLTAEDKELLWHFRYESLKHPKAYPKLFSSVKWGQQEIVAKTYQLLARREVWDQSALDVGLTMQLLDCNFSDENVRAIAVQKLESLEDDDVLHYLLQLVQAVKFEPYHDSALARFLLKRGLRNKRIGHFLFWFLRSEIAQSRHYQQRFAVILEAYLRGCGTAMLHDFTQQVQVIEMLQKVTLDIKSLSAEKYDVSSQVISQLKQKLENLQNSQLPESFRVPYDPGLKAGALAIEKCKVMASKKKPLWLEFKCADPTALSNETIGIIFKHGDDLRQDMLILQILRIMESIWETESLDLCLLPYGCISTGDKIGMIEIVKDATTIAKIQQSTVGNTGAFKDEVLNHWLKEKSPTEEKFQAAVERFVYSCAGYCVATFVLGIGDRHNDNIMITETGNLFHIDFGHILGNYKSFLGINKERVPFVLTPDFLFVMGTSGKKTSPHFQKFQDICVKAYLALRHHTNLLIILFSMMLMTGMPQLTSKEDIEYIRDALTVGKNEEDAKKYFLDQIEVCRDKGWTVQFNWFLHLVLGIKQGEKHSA
PI3Kδ (p110δ/p85α) Recombinant Human Protein, sequence (O00329 whole entry): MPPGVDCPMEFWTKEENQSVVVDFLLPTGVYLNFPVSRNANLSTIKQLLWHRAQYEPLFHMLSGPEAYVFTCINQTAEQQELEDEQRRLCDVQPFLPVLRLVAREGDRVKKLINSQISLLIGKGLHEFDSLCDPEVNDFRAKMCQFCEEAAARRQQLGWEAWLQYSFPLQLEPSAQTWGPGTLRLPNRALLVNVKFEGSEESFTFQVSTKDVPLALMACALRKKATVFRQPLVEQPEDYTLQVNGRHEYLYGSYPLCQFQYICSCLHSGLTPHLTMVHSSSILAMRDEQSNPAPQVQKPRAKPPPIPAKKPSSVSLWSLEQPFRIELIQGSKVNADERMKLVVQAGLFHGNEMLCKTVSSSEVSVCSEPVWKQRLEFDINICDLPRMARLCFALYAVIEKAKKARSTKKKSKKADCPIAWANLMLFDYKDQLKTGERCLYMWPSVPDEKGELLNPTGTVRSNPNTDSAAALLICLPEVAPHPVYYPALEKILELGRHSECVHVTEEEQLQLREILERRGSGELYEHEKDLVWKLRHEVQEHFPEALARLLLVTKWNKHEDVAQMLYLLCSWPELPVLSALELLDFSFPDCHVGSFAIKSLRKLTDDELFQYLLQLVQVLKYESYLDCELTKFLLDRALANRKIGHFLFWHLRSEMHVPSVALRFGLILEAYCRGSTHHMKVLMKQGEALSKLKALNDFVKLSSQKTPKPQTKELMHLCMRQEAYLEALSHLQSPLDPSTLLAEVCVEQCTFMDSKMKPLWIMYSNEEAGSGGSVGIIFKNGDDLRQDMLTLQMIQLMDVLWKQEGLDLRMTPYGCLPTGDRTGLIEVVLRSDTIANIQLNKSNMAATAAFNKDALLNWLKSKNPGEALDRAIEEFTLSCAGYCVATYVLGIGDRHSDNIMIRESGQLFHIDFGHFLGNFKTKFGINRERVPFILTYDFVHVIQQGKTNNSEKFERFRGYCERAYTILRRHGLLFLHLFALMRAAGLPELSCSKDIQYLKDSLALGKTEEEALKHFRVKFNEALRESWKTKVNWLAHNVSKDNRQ
PI3Kδ (p110δ/p85α) Recombinant Human Protein, sequence (P27986 whole entry partner): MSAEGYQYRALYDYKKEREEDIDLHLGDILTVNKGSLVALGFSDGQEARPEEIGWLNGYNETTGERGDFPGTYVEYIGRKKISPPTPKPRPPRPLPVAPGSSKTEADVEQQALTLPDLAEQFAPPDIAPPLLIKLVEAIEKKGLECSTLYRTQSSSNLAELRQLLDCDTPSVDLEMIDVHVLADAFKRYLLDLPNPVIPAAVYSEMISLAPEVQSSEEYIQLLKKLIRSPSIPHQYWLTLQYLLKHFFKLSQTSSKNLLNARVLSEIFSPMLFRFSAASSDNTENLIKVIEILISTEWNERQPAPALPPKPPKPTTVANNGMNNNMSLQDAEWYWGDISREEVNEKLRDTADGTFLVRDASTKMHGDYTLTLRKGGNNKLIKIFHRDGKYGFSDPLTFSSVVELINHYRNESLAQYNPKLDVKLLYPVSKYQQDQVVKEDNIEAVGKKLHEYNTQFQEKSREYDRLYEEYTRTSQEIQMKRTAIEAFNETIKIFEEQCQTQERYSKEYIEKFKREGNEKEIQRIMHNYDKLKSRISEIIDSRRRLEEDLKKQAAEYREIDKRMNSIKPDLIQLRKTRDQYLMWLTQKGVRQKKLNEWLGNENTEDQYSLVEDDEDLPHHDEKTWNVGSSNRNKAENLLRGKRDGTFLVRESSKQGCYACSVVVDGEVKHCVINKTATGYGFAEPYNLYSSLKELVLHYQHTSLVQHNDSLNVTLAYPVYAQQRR

As for `Cc1ncc(-c2ccc3nc(-c4nc5ccccc5[nH]4)oc3c2)cc1NS(=O)(=O)c1ccc(F)cc1` [Example 28, N-(5-(2-(1H-Benzo[d]imidazol-2-yl)benzo[d]oxazol-6-yl)-2-methylpyridin-3-yl)-4-fluorobenzenesulfonamide], the IC50 in assay [1] and in assay [2] was less than 250 nM throughout.

Take `O=S(=O)(Nc1cc(-c2ccc3nc(-c4nc5ccccc5[nH]4)oc3c2)cnc1Cl)c1ccc(F)cc1` [Example 29, N-(5-(2-(1H-Benzo[d]imidazol-2-yl)benzo[d]oxazol-6-yl)-2-chloropyridin-3-yl)-4-fluorobenzenesulfonamide]: the IC50 in assay [1] and in assay [2] was less than 250 nM each time.

As to `O=S(=O)(Nc1cc(-c2ccc3nc(-c4nc5ccccc5[nH]4)oc3c2)cnc1F)c1ccc(F)cc1` [Example 30, N-(5-(2-(1H-Benzo[d]imidazol-2-yl)benzo[d]oxazol-6-yl)-2-fluoropyridin-3-yl)-4-fluorobenzenesulfonamide], the IC50 in assay [1] and in assay [2] was less than 250 nM throughout.

With `CN1CCN(S(=O)(=O)Nc2cncc(-c3ccc4nc(-c5nc6ccccc6[nH]5)oc4c3)c2)CC1` [Example 31, N-(5-(2-(1H-Benzo[d]imidazol-2-yl)benzo[d]oxazol-6-yl)pyridin-3-yl)-4-methylpiperazine-1-sulfonamide], the IC50 in assay [1] and in assay [2] was less than 250 nM throughout.

As for `CN1CCN(S(=O)(=O)Nc2cc(-c3ccc4nc(-c5nc6ccccc6[nH]5)oc4c3)cnc2F)CC1` [Example 32, N-(5-(2-(1H-Benzo[d]imidazol-2-yl)benzo[d]oxazol-6-yl)-2-fluoropyridin-3-yl)-4-methylpiperazine-1-sulfonamide], the IC50 in assay [1] and in assay [2] was less than 250 nM each time.

For `CC(=O)Nc1cncc(-c2ccc3nc(-c4nc5ccccc5[nH]4)oc3c2)c1` [Example 33, N-(5-(2-(1H-Benzo[d]imidazol-2-yl)benzo[d]oxazol-6-yl)pyridin-3-yl)acetamide], the IC50 in assay [1] is less than 1000 nM; in assay [2] it was no less than 5000 nM.

`CN(C)c1cncc(-c2ccc3nc(-c4nc5ccccc5[nH]4)oc3c2)c1` [Example 34, 5-(2-(1H-Benzo[d]imidazol-2-yl)benzo[d]oxazol-6-yl)-N,N-dimethylpyridin-3-amine]: the IC50 in assay [1] is less than 250 nM; in assay [2] it was less than 5000 nM.

`N#Cc1cncc(-c2ccc3nc(-c4nc5ccccc5[nH]4)oc3c2)c1` [Example 35, 5-(2-(1H-Benzo[d]imidazol-2-yl)benzo[d]oxazol-6-yl)nicotinonitrile]: the IC50 in assay [1] was less than 250 nM; in assay [2], no less than 5000 nM.

In the case of `CS(=O)(=O)c1cncc(-c2ccc3nc(-c4nc5ccccc5[nH]4)oc3c2)c1` [Example 36, 2-(1H-Benzo[d]imidazol-2-yl)-6-(5-(methylsulfonyl)pyridin-3-yl)benzo[d]oxazole], the IC50 in assay [1] is less than 250 nM; in assay [2], less than 5000 nM.

As for `CN(C)S(=O)(=O)c1cncc(-c2ccc3nc(-c4nc5ccccc5[nH]4)oc3c2)c1` [Example 37, 5-[2-(1H-benzimidazol-2-yl)-1,3-benzoxazol-6-yl]-N,N-dimethylpyridine-3-sulfonamide], the IC50 in assay [1] was less than 250 nM; in assay [2] it was less than 1000 nM.

Regarding `O=S(=O)(c1cncc(-c2ccc3nc(-c4nc5ccccc5[nH]4)oc3c2)c1)N1CCOCC1` [Example 38, 2-(1H-Benzo[d]imidazol-2-yl)-6-(5-(morpholinosulfonyl)pyridin-3-yl)benzo[d]oxazole], the IC50 in assay [1] was less than 250 nM; in assay [2], no less than 5000 nM.

As to `O=S(=O)(Nc1cncc(-c2ccc3nc(-c4ncc[nH]4)oc3c2)c1)c1ccc(F)cc1` [Example 39, N-(5-(2-(1H-Imidazol-2-yl)benzo[d]oxazol-6-yl)pyridin-3-yl)-4-fluorobenzenesulfonamide], the IC50 in assay [1] and in assay [2] was less than 250 nM in each case.

For the compound `CCS(=O)(=O)Nc1cncc(-c2ccc3nc(-c4ncc[nH]4)oc3c2)c1` [Example 40, N-(5-(2-(1H-Imidazol-2-yl)benzo[d]oxazol-6-yl)pyridin-3-yl)ethanesulf-onamide], the IC50 in assay [1] was less than 250 nM; in assay [2], less than 1000 nM.

For the compound `CN(C)S(=O)(=O)Nc1cncc(-c2ccc3nc(-c4ncc[nH]4)oc3c2)c1` [Example 41, N′-{5-[2-(1H-Imidazol-2-yl)-1,3-benzoxazol-6-yl]pyridin-3-yl}-N,N-dimethyl-sulfamide], the IC50 in assay [1] was less than 250 nM; in assay [2], less than 1000 nM.

In the case of `COc1cncc(-c2ccc3nc(-c4cnc(C5CC5)[nH]4)oc3c2)c1` [Example 42, 2-(2-Cyclopropyl-1H-imidazol-5-yl)-6-(5-methoxypyridin-3-yl)benzo[d]oxazole], the IC50 in assay [1] is less than 1000 nM; in assay [2], less than 5000 nM.

For the compound `COc1cncc(-c2ccc3nc(-c4cnc(C5CCOC5)[nH]4)oc3c2)c1` (centres unmarked) [Example 43, 6-(5-Methoxy-pyridin-3-yl)-2-(2-(tetrahydro-furan-3-yl)-1H-imidazol-5-yl)benzo[d] oxazole], the IC50 in assay [1] was less than 5000 nM; in assay [2], no less than 5000 nM.

Turning to `COc1cncc(-c2ccc3nc(-c4cnc(-c5ccccc5)[nH]4)oc3c2)c1` [Example 44, 6-(5-Methoxy-pyridin-3-yl)-2-(2-phenyl-1H-imidazol-5-yl)benzo[d] oxazole], the IC50 in assay [1] is less than 250 nM; in assay [2], no less than 5000 nM.

For `CCc1ncc(-c2nc3ccc(-c4cncc(OC)c4)cc3o2)[nH]1` [Example 45, 2-(2-Ethyl-1H-imidazol-5-yl)-6-(5-methoxy-pyridin-3-yl)benzo[d] oxazole], the IC50 is greater than 5000 nM in assay [1] and no less than 5000 nM in assay [2].

For the compound `COc1cncc(-c2ccc3nc(-c4cc(C)n[nH]4)oc3c2)c1` [Example 46, 6-(5-Methoxypyridin-3-yl)-2-(3-methyl-1H-pyrazol-5-yl)benzo[d]oxazole], the results for the IC50 in assay [1] and in assay [2] were greater than 5000 nM and no less than 5000 nM, respectively.

As to `COc1cncc(-c2ccc3nc(-c4cc(-c5ccccc5)n[nH]4)oc3c2)c1` [Example 47, 6-(5-Methoxypyridin-3-yl)-2-(3-phenyl-1H-pyrazol-5-yl)benzo[d]oxazole], the IC50 in assay [1] was less than 5000 nM; in assay [2], no less than 5000 nM.

With `c1ccc(Cn2cc(-c3ccc4nc(-c5nc6ccccc6[nH]5)oc4c3)cn2)cc1` [Example 48, 2-(1H-Benzimidazol-2-yl)-6-(1-benzyl-1H-pyrazol-4-yl)-1,3-benzoxazole], the values for the IC50 in assay [1] and in assay [2] were less than 250 nM and less than 5000 nM, respectively.

Turning to `c1ccc2[nH]c(-c3nc4ccc(-c5ccc6[nH]ncc6c5)cc4o3)nc2c1` [Example 49, 2-(1H-Benzimidazol-2-yl)-6-(1H-indazol-5-yl)-1,3-benzoxazole], the IC50 was less than 250 nM in assay [1] and less than 5000 nM in assay [2].

As for `Cc1n[nH]c2ccc(-c3ccc4nc(-c5nc6ccccc6[nH]5)oc4c3)cc12` [Example 50, 2-(1H-Benzimidazol-2-yl)-6-(3-methyl-1H-indazol-5-yl)-1,3-benzoxazole], the IC50 in assay [1] and in assay [2] was less than 250 nM throughout.

As for `Fc1ccc(-c2ccc3nc(-c4nc5ccccc5[nH]4)oc3c2)cc1F` [Example 51, 2-(1H-Benzimidazol-2-yl)-6-(3,4-difluorophenyl)-1,3-benzoxazole trifluoroacetate], the IC50 in assay [1] was less than 250 nM; in assay [2] it was no less than 5000 nM.

As for `CCS(=O)(=O)n1ncc2ccc(-c3ccc4nc(-c5nc6ccccc6[nH]5)oc4c3)cc21` [Example 52, 6-[1-(Ethylsulfonyl)-1H-indazol-6-yl]-2-(1H-benzimidazol-2-yl)-1,3-benzoxazole], the IC50 in assay [1] and in assay [2] was less than 250 nM each time.
